# Test results published in PMC7216583 (Parasites & Vectors, 2020).
# Structures can show the parent of a compound that is named as a salt. Where two headings read alike, the source gives them in different places.
# What was measured:
# in vitro = details: human
# [1] = tested on: Toxoplasma gondii RH-2F tachyzoites; experiment: microbe, parasite or virus in culture; details: 72 h; for inhibition at 5 µM: read-out: Parasite inhibition (%) Mean ± SD
# [2] = tested on: Toxoplasma gondii RH-2F tachyzoites; details: mean
# [3] = read-out: Parasite inhibition (%) mean, preliminary screen, mean
# [4] = read-out: Parasite inhibition (%) mean, preliminary screen of compound library, mean
# [5] = preliminary screen of compound library
# [6] = read-out: Parasite inhibition (%) mean
structure (smiles),measurement,setting,value
CC[C@]12C=CCN3CCC4(c5cc([C@@]6(C(=O)OC)C[C@H]7C[C@@H](C(C)(F)F)CN(Cc8c6[nH]c6ccccc86)C7)c(OC)cc5N(C)[C@H]4[C@@](O)(C(=O)OC)[C@@H]1OC(C)=O)C32 (stereo in doubt) [Vinflunine Tartrate],viability,in vitro,60.8%
same,inhibition of growth at 5 µM,[1]; [3],83.2%
CC1(C)CCC(CN2CCN(c3ccc(C(=O)NS(=O)(=O)c4ccc(NCC5CCOCC5)c([N+](=O)[O-])c4)c(Oc4cnc5[nH]ccc5c4)c3)CC2)=C(c2ccc(Cl)cc2)C1 [ABT-199 (GDC-0199 )],viability at 72 h,in vitro; Host viability (%) mean,25.4%
same,inhibition of growth at 5 µM,[1]; [4],70.8%
CNC1CCCN(c2c(F)cc3c(=O)c(C(=O)O)cn(C4CC4)c3c2OC)C1 (stereo not shown) [Balofloxacin],viability at 72 h,in vitro; Host viability (%) mean,76.4%
same,inhibition of growth at 5 µM,[1]; [4],71.8%
"CCN1CCN(c2cc(-c3ccc(F)cc3)c3c(n2)CCCCCC3)CC1 [Blonanserin, reference compound]","viability at 72 h, 5 µM",in vitro; Host viability (%) Mean ± SD,88.3 ± 5.9%
same,inhibition at 5 µM,[1],82.1 ± 3.1%
CN(C)c1ccc(-c2nc3c(N4CCN(CC(=O)Nc5nccs5)CC4)c(Cl)cnc3[nH]2)cc1 [CCT129202],viability at 72 h,in vitro; Host viability (%) mean,42.6%
same,inhibition of growth at 5 µM,[1]; [3],85.6%
"CC(C)C[C@@H](C(=O)N[C@H](C(=O)OC1CCCC1)c1ccccc1)[C@H](O)C(=O)NO [CHR2797, reference compound]","viability at 72 h, 5 µM",in vitro; Host viability (%) Mean ± SD,88.8 ± 6.7%
same,inhibition at 5 µM,[1],85.6 ± 1.8%
C[C@@H](Oc1cc(-c2cnn(C3CCNCC3)c2)cnc1N)c1c(Cl)ccc(F)c1Cl [Crizotinib (PF-02341066)],viability,in vitro,43.6%
same,inhibition of growth at 5 µM,[1]; [3],86.8%
CN1CCC(=C2c3ccccc3C=Cc3ccccc32)CC1 [Cyproheptadine HCl (Periactin)],viability at 72 h,"in vitro; uninfected human foreskin fibroblasts (HFFs), Host viability (%) mean, preliminary screen, mean",90.6%
"CN1CCC(=C2c3ccccc3C=Cc3ccccc32)CC1 [Cyproheptadine HCl, reference compound]","viability at 72 h, 5 µM",in vitro; Host viability (%) Mean ± SD,90.6 ± 1.2%
CC(O)C(=O)O.CC(O)C(=O)O.CN1CCN(c2ccc3nc(-c4c(N)c5c(F)cccc5[nH]c4=O)[nH]c3c2)CC1 [Dovitinib Dilactic acid],Parasite inhibition (%) mean,[2]; [5],18.2%
"Nc1ccccc1NC(=O)c1ccc(CNC(=O)OCc2cccnc2)cc1 [Entinostat (MS-275, SNDX-275)]",viability at 72 h,in vitro; Host viability (%) mean,81.6%
same,inhibition of growth at 5 µM,[1]; [3],75.7%
"Nc1ccccc1NC(=O)c1ccc(CNC(=O)OCc2cccnc2)cc1 [Entinostat, reference compound]","viability at 72 h, 5 µM",in vitro; Host viability (%) Mean ± SD,81.6 ± 1.5%
same,inhibition at 5 µM,[1],75.7 ± 2.2%
CNC(=O)CN(CCN(CCN(CC(=O)[O-])CC(=O)NC)CC(=O)[O-])CC(=O)[O-].O.[Gd+3] [Gadodiamide (Omniscan)],Parasite inhibition (%) mean,[2]; [5],-0.2%
Oc1cc(O)c(Cl)cn1 [Gimeracil],viability at 72 h,in vitro; Host viability (%) mean,75.6%
same,inhibition of growth at 5 µM,[1]; [3],70.8%
Cl.N=C(N)N [Guanidine HCl],Parasite inhibition (%) mean,[2]; [5],-3.4%
CNC(=O)c1ccc(-c2cnc3ncc(Cc4ccc5ncccc5c4)n3n2)cc1F [INCB28060],viability,in vitro,46.3%
same,inhibition of growth at 5 µM,[1]; [4],89.8%
CC(C)Cc1ccc(C(C)C(=O)O)cc1.NCCCC[C@H](N)C(=O)O (stereo not shown) [Ibuprofen Lysine (NeoProfen)],Parasite inhibition (%) mean,[2]; preliminary screen,-1.6%
"O=C(C[S+]([O-])Cc1ccco1)NC/C=C\COc1cc(CN2CCCCC2)ccn1 (stereo not shown) [Lafutidine, reference compound]","viability at 72 h, 5 µM",in vitro; Host viability (%) Mean ± SD,92.7 ± 5.6%
same,viability at 72 h,in vitro; Host viability (%) mean,92.7%
same,inhibition at 5 µM,[1],70.6 ± 2.5%
C[C@]1(O)C[C@@H](c2nc(-c3ccc4ccc(-c5ccccc5)nc4c3)c3c(N)nccn32)C1 [Linsitinib (OSI-906)],viability at 72 h,in vitro; Host viability (%) mean,72.2%
same,inhibition of growth at 5 µM,[1]; [3],78.8%
O=C1CCC[C@@H]2[C@@H]3CCCN4CCC[C@H](CN12)[C@@H]34 [Matrine ((+)-Matrine)],viability at 72 h,in vitro; uninfected human foreskin fibroblasts (HFFs),19.6%
same,inhibition of growth at 5 µM,[1]; [4],78.7%
"Cc1cccc(C(C)c2cnc[nH]2)c1C (stereo not shown) [Medetomidine HCl, reference compound]",viability,in vitro,90.5%
same,viability at 5 µM,in vitro,90.5 ± 4.4%
same,inhibition at 5 µM,[1],70.8 ± 1.5%
Nc1ccccc1NC(=O)c1ccc(CNc2nccc(-c3cccnc3)n2)cc1 [Mocetinostat (MGCD0103)],viability at 72 h,in vitro; Host viability (%) mean,80.2%
same,inhibition of growth at 5 µM,[1]; [3],86.5%
"Nc1ccccc1NC(=O)c1ccc(CNc2nccc(-c3cccnc3)n2)cc1 [Mocetinostat, reference compound]","viability at 72 h, 5 µM",in vitro; Host viability (%) Mean ± SD,80.2 ± 3.8%
same,inhibition at 5 µM,[1],86.5 ± 3.1%
CN(C)Cc1c(C(=O)NCCOc2ccc(C(=O)NO)cc2)oc2ccccc12 [PCI-24781],viability at 72 h,in vitro; Host viability (%) mean,33.8%
same,inhibition of growth at 5 µM,[1]; [3],82.7%
OCCn1cc(-c2cnc3nnn(Cc4ccc5ncccc5c4)c3n2)cn1 [PF-04217903],viability at 72 h,in vitro,65%
same,inhibition of growth at 5 µM,[1]; [6],88.6%
O=S(=O)(F)Cc1ccccc1 [PMSF (Phenylmethylsulfonyl Fluoride)],Parasite inhibition (%) mean,[2]; [5],0.8%
Cl.NC(=O)c1cnc(N[C@@H]2CCCC[C@@H]2N)nc1Nc1cccc(-n2nccn2)c1 [PRT062607 HCl],Parasite inhibition (%) mean,[2]; [5],17.8%
"NCCC(O)(P(=O)(O)O)P(=O)(O)O [Pamidronate disodium, reference compound]",viability at 72 h,in vitro,80.8%
same,"viability at 72 h, 5 µM",in vitro,80.8 ± 1.4%
same,inhibition at 5 µM,[1],79.6 ± 1.5%
"Nc1nc2[nH]cc(CCc3ccc(C(=O)N[C@@H](CCC(=O)O)C(=O)O)cc3)c2c(=O)[nH]1 [Pemetrexed disodium, reference compound]","viability at 72 h, 5 µM",in vitro,84.6 ± 1.5%
[I-].[K+] [Potassium iodide],Parasite inhibition (%) mean,[2]; [5],10.2%
C=C[C@H]1C[N@@]2CC[C@H]1C[C@H]2[C@H](O)c1ccnc2ccc(OC)cc12 [Quinine hydrochloride dihydrate],viability,in vitro,79.4%
same,inhibition of growth at 5 µM,[1]; [4],78.9%
COc1cc(Nc2ncc(F)c(Nc3ccc4c(n3)N(COP(=O)(O)O)C(=O)C(C)(C)O4)n2)cc(OC)c1OC [R935788],Parasite inhibition (%) mean,[2]; preliminary screen,28.5%
N[C@@H]1CN(c2c(F)cc3c(=O)c(C(=O)O)cn([C@@H]4C[C@@H]4F)c3c2Cl)CC12CC2.O [Sitafloxacin hydrate],Parasite inhibition (%) mean,[2]; [5],53.1%
"Cc1cn([C@@H]2C[C@@H](O)[C@H](CO)O2)c(=O)[nH]c1=O [Telbivudine (Sebivo, Tyzeka)]",inhibition of growth at 5 µM,[1]; [4],12.9%
CCOC(=O)[C@H](CCc1ccccc1)N[C@H]1CS[C@H](c2cccs2)CN(CC(=O)O)C1=O [Temocapril HCl],inhibition of growth at 5 µM,[1]; [3],31.7%
C[C@H](Cn1cnc2c(N)ncnc21)OCP(=O)(O)O [Tenofovir (Viread)],inhibition of growth at 5 µM,[1]; [3],0%
CC(C)OC(=O)OCOP(=O)(CO[C@H](C)Cn1cnc2c(N)ncnc21)OCOC(=O)OC(C)C [Tenofovir Disoproxil Fumarate],inhibition of growth at 5 µM,[1]; [3],0.5%
CC(S)C(=O)NCC(=O)O (stereo not shown) [Tiopronin (Thiola)],inhibition of growth at 5 µM,[1]; [4],0.9%
C[N+]1(C)[C@@H]2C[C@@H](OC(=O)C(O)(c3cccs3)c3cccs3)C[C@H]1[C@@H]1O[C@@H]12 [Tiotropium Bromide hydrate],inhibition of growth at 5 µM,[1]; [4],-0.7%
COc1cc2nccc(Oc3ccc(NC(=O)Nc4cc(C)on4)c(Cl)c3)c2cc1OC [Tivozanib (AV-951)],inhibition of growth at 5 µM,[1]; [3],-5.5%
"C[C@H]1CCN(C(=O)CC#N)C[C@@H]1N(C)c1ncnc2[nH]ccc12 [Tofacitinib (CP-690550, Tasocitinib)]",inhibition of growth at 5 µM,[1]; [4],11.2%
Cc1ccc(O)c([C@H](CCN(C(C)C)C(C)C)c2ccccc2)c1 [Tolterodine tartrate (Detrol LA)],inhibition of growth at 5 µM,[1]; [4],2.2%
CCC(=O)N1CCN(c2ccc(-n3c(=O)ccc4cnc5ccc(-c6cnc7ccccc7c6)cc5c43)cc2C(F)(F)F)CC1 [Torin 1],inhibition of growth at 5 µM,[1]; [4],17.8%
Nc1ccc(-c2ccc3ncc4ccc(=O)n(-c5cccc(C(F)(F)F)c5)c4c3c2)cn1 [Torin 2],inhibition of growth at 5 µM,[1]; [4],25.1%
CCC(COC(=O)c1cc(OC)c(OC)c(OC)c1)(c1ccccc1)N(C)C (stereo not shown) [Trimebutine],inhibition of growth at 5 µM,[1]; [3],1.4%
CN1CCc2c(c3ccccc3n2Cc2ccc(C(=O)NO)cc2)C1 [Tubastatin A HCl],inhibition of growth at 5 µM,[1]; [4],2.3%
O=C(Nc1ccc(S(=O)(=O)Nc2ccccc2Cl)c(Cl)c1)c1ccccn1 [VU 0364439],inhibition of growth at 5 µM,[1]; [4],-0.9%
CC(C)(CO)c1cc2cc(NC(=O)C3(c4ccc5c(c4)OC(F)(F)O5)CC3)c(F)cc2n1C[C@@H](O)CO [VX-661],inhibition of growth at 5 µM,[1]; [4],0.6%
"Cc1cc(Nc2cc(N3CCN(C)CC3)nc(Sc3ccc(NC(=O)C4CC4)cc3)n2)n[nH]1 [VX-680 (MK-0457, Tozasertib)]",viability at 72 h,in vitro; Host viability (%) mean,34.7%
same,inhibition of growth at 5 µM,[1]; [3],70.7%
CC(C)[C@H](N)C(=O)OCCOCn1cnc2c(=O)[nH]c(N)nc21 [Valaciclovir HCl],inhibition of growth at 5 µM,[1]; [4],0.1%
COc1cc2c(Nc3ccc(Br)cc3F)ncnc2cc1OCC1CCN(C)CC1 [Vandetanib (Zactima)],viability at 72 h,in vitro,79.5%
same,inhibition of growth at 5 µM,[1]; [3],80.2%
c1cnc2cc3c(cc2n1)C1CNCC3C1 [Varenicline tartrate],inhibition of growth at 5 µM,[1]; [3],0%
CCCS(=O)(=O)Nc1ccc(F)c(C(=O)c2c[nH]c3ncc(-c4ccc(Cl)cc4)cc23)c1F [Vemurafenib (PLX4032)],inhibition of growth at 5 µM,[1]; [3],0.5%
N#C[C@@H]1CCCN1C(=O)CNC12CC3CC(CC(O)(C3)C1)C2 [Vildagliptin (LAF-237)],inhibition of growth at 5 µM,[1]; [4],-11.7%
C=CC(=O)Nc1cccc(Sc2nc(Nc3ccc(N4CCN(C)CC4)cc3)ncc2Cl)c1 [WZ8040],inhibition of growth at 5 µM,[1]; [6],2.8%
Oc1nc(-c2ccc(C(F)(F)F)cc2)nc2c1CSCC2 [XAV-939],inhibition of growth at 5 µM,[1]; [3],-38.8%
O=C[C@H](O)[C@@H](O)[C@H](O)CO [Xylose],inhibition of growth at 5 µM,[1]; [4],-51.2%
C[C@@H](N)[C@H]1CC[C@H](C(=O)Nc2ccncc2)CC1 [Y-27632 2HCl],inhibition of growth at 5 µM,[1]; [3],-4.8%
COc1cc2c(Nc3ccc(NC(=O)c4ccccc4)cc3)ncnc2cc1OCCCN1CCOCC1 [ZM-447439],viability at 72 h,in vitro; Host viability (%) mean,31.2%
same,inhibition of growth at 5 µM,[1]; [3],70.2%
CC(C(=O)O)c1ccc2c(c1)CC(=O)c1ccccc1S2 (stereo not shown) [Zaltoprofen],inhibition of growth at 5 µM,[1]; [4],3.3%
O=C1Cc2cc(CCN3CCN(c4nsc5ccccc45)CC3)c(Cl)cc2N1 [Ziprasidone hydrochloride],inhibition of growth at 5 µM,[1]; [4],33.7%
